Experimental data: patent publication US20230103704A1, “HUMAN ANTI-IN[…] FOR THE […] OF IN[…] ISSUES” (priority 2020, published 2023)
“And” between values parts separate entries of the source, which are not always exact repeats. Equal entries are not always repeated. “Also recorded” adds a separate entry of the source. Marks after values point to notes of the source that are not given here.

How the values were obtained:
[1] = type: physicochemical
Description: Aviptadil can be obtained, e.g., from Bachem AG, Bubendorf, Switzerland, in GMP quality.
The experimental procedure was carried out pursuant to Ph. Eur. 2.9.44 (Preparations for Nebulisation: Characterisation). A cascade impactor (Next Generation Impactor (NGI), Copley Scientific Ltd., Nottingham, UK) was used to determine the respective percentage for each fraction of the nebulized particles.
The thus generated aerosol was delivered to the cascade impactor by means of a mouthpiece (SK-211, NEBU-TEC, Eisenfeld, Germany).
The nebulization chamber (yellow stamp, 250 μl liquid discharge) was filled. The puff profile configured at the breath simulator was chosen in such a way that a correct simulation of inhalation by means of the nebulizer was ensured. The corresponding time was recorded.
Single values obtained for each cascade were added. […] MMAD, FPF and FPM were calculated from the obtained values: […]

[2] = Aviptadil aerosol from M-neb dose+ MN-300/8 tested with COPLEY next generation impactor; type: physicochemical
Description: Using the M-neb® dose^+ mesh nebulizer MN-300/8 and the respective mouthpiece, Aviptadil has been tested with the COPLEY next generation impactor (NGI). The mass median aerodynamic diameter (MMD) of Aviptadil dissolved in 0.9% NaCl was 3.3-3.5 μm per emitted particle. The number of those particles <5 μm=85.70%, and the dose delivered at the mouthpiece was 90.2% of the tested dosages.
Aviptadil has been tested in 0.9% NaCl solution at different drug concentrations (35 μg/ml, 70 μg/ml, 140 μg/ml, 200 μg/ml, 250 μg/ml, 400 μg/ml).

[3] = test system: pulmonary arterial hypertension (PAH); assay: Case: inhaled Aviptadil in a patient with severe pulmonary arterial hypertension; type: in vivo, human
Description: A patient with severe pulmonary arterial hypertension (PAH), associated with collagen vascular disease, presented with signs of right ventricular decompensation, with an initial pulmonary vascular resistance (PVR) of 1413 dyn s cm^−5. The patient was treated before with bosentan for 3 months. This therapy was discontinued due to increased liver enzymes. PAH-specific medication was changed to triple therapy comprising inhaled iloprost and systemic sildenafil and ambrisentan. The patient developed peripheral edema, right ventricular hypertrophy, right ventricular systolic pressure (RVSP) 97 mm Hg, TAPSE (tricuspid annular plane systolic excursion) 17 mm, 6 min walking test 290 m. A repeated prostanoid therapy was refused by the patient. Due to the lack of other treatment options, treatment with inhaled Aviptadil was initiated at a dose of 4×140 μg/ml per day (560 μg/day) with overnight break, droplet characteristics of a MMAD of 3.4 μm per emitted particle (nebulizer: M-neb-dose+, NEBU-TEC, Eisenfeld, Germany). 90% of the dose were delivered at the mouthpiece (SK-211, NEBU-TEC, Eisenfeld, Germany). Inhalation time per treatment was 12 minutes. […] 6 months later the 6 min walking test was increased to 340 m, 12 months later to 410 m. 3 years later an ongoing improvement was noted, with 6 min walking distances between 430-475 m and still persistent PAH, but good right ventricular function of TAPSE 22 mm. This dramatic improvement of the patient over time is attributed to the effect of inhaled Aviptadil.

sarcoidosis of the lung = assay: Case: inhaled Aviptadil in a patient with severe sarcoidosis of the lung (KSQ); type: in vivo, human; settings: for King's College Sarcoidosis Questionnaire (KSQ) score: 280 μg per day inhaled
Description: A patient with severe sarcoidosis of the lung indicated for therapeutic treatment suffered from unproductive chronic cough, dyspnea on exertion and chronic fatigue. […] Therapy was initiated at a dose of 4×70 μg/ml per day dosage (280 μg per day with overnight break; nebulizer: M-neb-dose+, NEBU-TEC, Eisenfeld, Germany; mouthpiece; SK-211, NEBU-TEC, Eisenfeld, Germany). Therapeutic benefit was measured by the newly established and well validated quality of life questionnaire for sarcoidosis, the King's College Sarcoidosis Questionnaire (KSQ; Patel et al. (2013) Thorax 68: 57-65). Therein an increase in score by 5 over time indicates significant clinical improvement. The patient started treatment at a score of 66, improved after 3 months of treatment to score 71, and after 6 months of treatment to score 77, which is 11 points higher than at beginning of treatment with Aviptadil.

[4] = test system: PBMCs stimulated with beryllium; assay: Case: inhaled Aviptadil in a patient with Chronic Beryllium Disease, PBMC proliferation and cytokines; type: in vivo, human; settings: after 6 months of treatment
Source text: A patient who was continuously exposed to beryllium at their workplace developed Chronic Beryllium Disease (CBD). This was diagnosed by tests performed on peripheral blood and bronchoalveolar lavage (BAL) mononuclear cells. […] A test called beryllium lymphocyte proliferation test (BeLPT) confirmed the CBD diagnosis. Due to the lack of available treatment options for CBD, the patient qualified for the Early Access Program treatment with inhaled Aviptadil. Therapy was initiated at a dose of 4×70 μg/ml per day dosage (280 μg per day with overnight break; nebulizer: M-neb-dose+, NEBU-TEC, Eisenfeld, Germany; mouthpiece; SK-211, NEBU-TEC, Eisenfeld, Germany). After 6 months of treatment, the proliferation rate of PBMCs stimulated with beryllium (0.1 mM) from the patient was inhibited by 100% by Aviptadil.

[5] = test system: CoViD-19 infected patients at risk for ARDS; settings: human, in vivo
CoViD-19 = assay: Individual curing attempts for CoViD-19 with Aviptadil, oxygen demand; type: in vivo, human
Description: Example 18: Individual Curing Attempts for the Therapy of CoViD-19 with Aviptadil 3×66 μg Daily Per Inhalationem (Oxygen Demand Via Oxygen Nasal Cannula in L Per Minute (l/min))

Patients with SARS-CoV-2 = assay: Study of aviptadil inhalation versus placebo in CoViD-19 patients; type: in vivo, human; settings: during treatment, 28 days inhalative
Source text: A study examines the positive effect of aviptadil inhalation (dosage example 17) in CoViD-19 patients.
Patients with SARS-CoV-2 are randomized into two groups, one with 28 days aviptadil inhalative, one with 28 days placebo inhalative.

[6] = Side effects of inhaled vasoactive intestinal peptide in previous trials; type: in vivo, human
ARDS = settings: systemic administration, cited from earlier work
[7] = may be as low as; cited from earlier work
[8] = 0.1 mg/ml in physiological saline
[9] = estimated values with 25 l/min Highflow with oxygen from 72 to 44%
[10] = oxygen nasal cannula, 3×66 μg daily, one table line per patient
[11] = oxygen nasal cannula, 3×66 μg daily, one table line per patient, listed as Aviptadil

CC[C@H](C)[C@H](NC(=O)[C@H](CO)NC(=O)[C@H](CC(N)=O)NC(=O)[C@H](CC(C)C)NC(=O)[C@H](Cc1ccc(O)cc1)NC(=O)[C@H](CCCCN)NC(=O)[C@H](CCCCN)NC(=O)[C@@H](NC(=O)[C@H](C)NC(=O)[C@H](CCSC)NC(=O)[C@H](CCC(N)=O)NC(=O)[C@H](CCCCN)NC(=O)[C@H](CCCNC(=N)N)NC(=O)[C@H](CC(C)C)NC(=O)[C@H](CCCNC(=N)N)NC(=O)[C@@H](NC(=O)[C@H](Cc1ccc(O)cc1)NC(=O)[C@H](CC(N)=O)NC(=O)[C@H](CC(=O)O)NC(=O)[C@@H](NC(=O)[C@H](Cc1ccccc1)NC(=O)[C@@H](NC(=O)[C@H](C)NC(=O)[C@H](CC(=O)O)NC(=O)[C@H](CO)NC(=O)[C@@H](N)Cc1c[nH]cn1)C(C)C)[C@@H](C)O)[C@@H](C)O)C(C)C)C(=O)N[C@@H](CC(C)C)C(=O)N[C@@H](CC(N)=O)C(N)=O [vasoactive intestinal peptide]
MMAD [1, 8]: 3.40 μm | released dosage at the mouthpiece as share of the nominal value [1, 8]: 80% | released dosage ([1]; 0.1 mg/ml in physiological saline, at the mouthpiece): 0.08 mg | MMAD per emitted particle ([1]; Example 11, 140 μg/ml, M-neb-dose+): 3.4 μm | dose delivered at the mouthpiece ([1]; Example 11, mouthpiece SK-211): 90% | time of aerosol release ([1]; corresponds to 30 strokes/breaths): 3 min | dose delivered at the mouthpiece, of the tested dosages [2]: 90.2% | linearity of aerosol output rates at the mouthpiece over increasing numbers of breathing cycles ([2]; 35 to 400 μg/ml in 0.9% NaCl): excellent linearity | mass median aerodynamic diameter (MMD) per emitted particle ([2]; dissolved in 0.9% NaCl): 3.3-3.5 μm | number of particles <5 μm ([2]; dissolved in 0.9% NaCl): 85.70% | clinical course ([3]; 560 μg/day inhaled): gradual improvement | 6 min walking distances ([3]; 3 years later): 430-475 m | TAPSE ([3]; 3 years later, 17 mm before): 22 mm | 6 min walking test ([3]; 6 months later, 560 μg/day inhaled, 290 m before): 340 m | 6 min walking test ([3]; 12 months later, 560 μg/day inhaled): 410 m | King's College Sarcoidosis Questionnaire (KSQ) score (sarcoidosis of the lung; after 3 months, score 66 at start): 71 | KSQ score higher than at beginning of treatment (sarcoidosis of the lung; after 6 months): 11 points | King's College Sarcoidosis Questionnaire (KSQ) score (sarcoidosis of the lung; after 6 months): 77 | production of cytokines TNF-alpha, IL-17 [4]: significantly diminished | Arterio-alveolar oxygen difference (AaDO2) [5]: lower | need of oxygen supplementation [5]: lower need of oxygen supplementation | oxygenation (SpO2/FiO2 quotient) [5]: better oxygenation | rate of progression to ARDS [5]: reduced rate of progression to ARDS | respiratory rate [5]: decrease of respiratory rate | O2 Day 1 (CoViD-19; [9]): 15* l/min | O2 Day 2 (CoViD-19; [9]): 15* l/min | O2 Day 3 (CoViD-19; [9]): 14* l/min | O2 Day 4 (CoViD-19; [9]): 11* l/min | O2 Day 5 (CoViD-19; [9]): 6* l/min | O2 Day 6 (CoViD-19; [9]): 6* l/min | O2 Day 11 (CoViD-19; [10]): 6 L/min | O2 Day 12 (CoViD-19; [10]): 3.3 L/min | O2 Day 13 (CoViD-19; [10]): 2 L/min | O2 Day 14 (CoViD-19; [10]): 1.5 L/min | O2 Day 15 (CoViD-19; [10]): 1 L/min | O2 Day 16 (CoViD-19; [10]): 0.5 L/min | O2 Day 17 (CoViD-19; [10]): 0 L/min | O2 Day 1 (CoViD-19; [11]): 5 L/min and 3 L/min and 2 L/min and 1.5 L/min | O2 Day 2 (CoViD-19; [11]): 4 l/min and 3 l/min (2×) and 2 l/min | O2 Day 3 (CoViD-19; [11]): 6 l/min and 4 l/min and 3 l/min (2×) and 2 l/min | O2 Day 4 (CoViD-19; [11]): 5 l/min and 4 l/min and 2 l/min (3×) | O2 Day 5 (CoViD-19; [11]): 4 l/min and 3 l/min and 1 l/min (2×) and 0 l/min | O2 Day 6 (CoViD-19; [11]): 3 l/min and 2 l/min (2×) and 0 l/min | O2 Day 7 (CoViD-19; [11]): 2 l/min (2×) and 1 l/min and 4 l/min | O2 Day 8 (CoViD-19; [11]): 0 l/min and 1 l/min (2×) and 5.5 l/min | O2 Day 9 (CoViD-19; [11]): 1 l/min (2×) and 4.7 l/min | O2 Day 10 (CoViD-19; [11]): 0 l/min (2×) and 5.5 l/min | T-cells expressing CD28 promoting inflammation (Patients with SARS-CoV-2): diminished | TNF release in the lung (Patients with SARS-CoV-2): diminished | regulatory T-cells dampening inflammation (Patients with SARS-CoV-2): increased | side effects found with systemic administration [6]: lacks the side effects; also recorded: lacks these side effects | systemic side effects (ARDS; some of the patients): hypotension | effect on ARDS (ARDS; trial discontinued): lack of positive effect | half-life in blood [7]: about 2 minutes
